# Where two headings read alike, the source gives them in different places.
# Experiments:
# [1] = Comparison of water-scavenging activity in pigment millbase (GC determination of remaining water)
# From the text: The water-scavenging activity of 4-ethyl-2-isopropyl oxazolidine (BBA), 1-aza-3,7-dioxo-2,8-diisopropyl-5-ethylbicyclo (3.3.0) octane (EBA), p-toluenesulfonyl isocyanate (PTSI), isophorone diisocyanate (IPDI), and sodium potassium aluminosilicate (SPAS) were compared in pigment millbase formulation. Formulations of this type are representative of pigment formulations used in moisture-curing urethane coating systems. The following millbase formulation was used: […]
# The following procedure was used to prepare the millbase. All the materials were weighed out and added under agitation into a pot. Soft Resin P-65, obtained from Mobay Corp., is a 65% synthetic (non-reactive polyester) resin in solvent Naphtha 100 and is employed as a grind aid. CAB 551, obtained from Eastman Chemical Products, Inc., Kingsport, Tenn., is cellulose acetate butyrate ester and was employed as a rheology aid. CAB 551 was dissolved in PMA. PMA is propylene glycol monomethyl ether acetate obtained from Eastman Chemical Products, Inc. The solution of CAB 551 in PMA included 33% CAB 551 by weight. Anti-Terra-U is a wetting and dispersing additive obtained from BYK-Chemie U.S.A., Wallingford Conn., and is a solution of a salt of unsaturated polyamine amides and higher molecular weight acidic esters. Ektasolve-EEP, obtained from Eastman Chemicals Products, Inc., is ethyl-3-ethoxypropionate stabilized with 2,6-di-tert-butyl- p-cresol, and was employed as a solvent. M-P-A 2000X, obtained from Rheox, Inc., Hightstown, N.J., was employed as an antisettling agent. R-960-TiO2 is a titanium dioxide pigment obtained from E.I. du Pont Nemours & Co., Inc., Wilmington, Del.
# Once the ingredients were added to the vessel they were continuously agitated until a 7 Hegman grind value was obtained for the mixture. The millbase was then heated to 60° C. A portion of the mixture was removed, and the percent of water remaining was determined using gas chromatography. Using the determined percentage of water, the minimum amount of the water-scavenger compound to be added to the millbase was calculated using the following equation:
# Minimum weight of water scavenger=wt. mb.×wt. % H2 O×(1/MW
# H2 O×mol.×MW scavenger/purity)
# The determined amount of each moisture-scavenger was added to one millbase. Six millbases were prepared. Each of the five moisture-scavengers listed above were tested in a millbase with one millbase remaining untreated as a control. Once the millbases were treated, they were mixed continuously. At 30 minutes, 60 minutes, 120 minutes, 180 minutes, 240 minutes, and 300 minutes, samples of the millbase were removed and the amount of water remaining in the millbase was determined using gas chromatography. In each trial two moles of moisture scavenger was used for every mole of water. The results of 6 trials are summarized below in Table I and graphically represented in FIG. 1.
# [2] = test system: four strains of Salmonella typhimurium; assay: Ames Mutagenicity Assay; format: cell-based; details: presence and absence of exogenous mammalian activation system
# Description: The Ames Mutagenicity Assay was performed to determine the mutagenicity of the compound. The assay evaluates the mutagenic potential of a test substance by its ability to induce back mutations at selected loci of four strains of Salmonella typhimurium in the presence and absence of an exogenous mammalian activation system.
# [3] = test system: skin of New Zealand White Rabbits; assay: Primary dermal irritation (TSCA, Section 798.4470); format: in vivo; details: single topical application, TSCA guidelines
# Description: Based upon the standards of the Toxic Substances Control Act (TSCA), 40 CFR, Part 798, Subpart E, Specific Organ/Tissue Toxicity, Primary Dermal Irritation, Section 798.4470, July 1989, 2-isopropyl-4-ethyl oxazolidine was evaluated for its potential to produce primary dermal irritation after a single topical application to the skin of New Zealand White Rabbits.
# [4] = test system: male and female New Zealand White albino rabbits; assay: Acute dermal toxicity (TSCA, 789.1100); format: in vivo; details: topical, 2 g/Kg
# Description: Based upon the standards of the Toxic Substance Control Act (TSCA), 40 CFR, Part 798, Subpart A, General Toxicity Testing, Acute Dermal Toxicity, 789.1100, July 1989, the compound was evaluated for its potential to produce systematic toxicity or death following topical application at a dose of 2 g/Kg in male and female New Zealand White albino rabbits.
# [5] = Acute oral toxicity (TSCA, 40 CFR Part 798, 798.1175); details: rat, in vivo, dose levels 1.80, 1.50 and 1.30 g/kg, male and female Sprague-Dawley rats
# Description: Based upon the standards of the Toxic Substance Control Act (TSCA), 40 CFR, Part 798, Subpart A, General Toxicity Testing, Acute Oral Toxicity, 798.1175, July 1989, 2-isopropyl-4-ethyl oxazolidine was evaluated for its potential to produce death following oral administration at dose levels of 1.80g/kg, 1.50 g/kg, and 1.30 g/kg, to male and female Sprague-Dawley rates.
# [6] = test system: intact skin of New Zealand White rabbits; assay: Primary skin irritation (FIFRA, 40 CFR 162); format: in vivo
# Description: The primary skin irritation of the compound was evaluated in compliance with the conditions specified in the Regulation for the Enforcement of Federal Insecticide, Fungicide and Rodenticide Act (40 CFR 162). A small amount of the compound (0.5 ml) was applied to an intact skin site on six New Zealand White rabbits (three males and three females) and allowed to remain in contact with the skin for 4 hours. The sites were scored for erythema and edema and checked for tissue damage 1/2 hour after the end of the application period (41/2 hour reading) and […] (24-hour reading) and at 48 and 72 hours.
# [7] = test system: eye of New Zealand White rabbits; assay: Primary eye irritation (FIFRA, 40 CFR 162); format: in vivo
# Description: The primary […] irritation of the compound was evaluated in compliance with the conditions specified in the Regulation for the Enforcement of Federal Insecticide, Fungicide and Rodenticide Act (40 CFR 162). A small amount of the undiluted compound (0.1 ml) was applied to the right or left eye of six New Zealand White rabbits (one male and five females). The compound was allowed to remain without rinsing in the eyes of the animals. The eyes were graded for corneal changes, conjunctival changes, and changes in the iris one hour after application, and one, two, three, four, and seven days later.
# [8] = test system: male and female Sprague-Dawley derived albino rats; assay: Acute oral toxicity (FIFRA, 40 CFR 162); format: in vivo; details: undiluted, 5.0 g/kg, rats
# Description: (§1) The acute oral toxicity of the compound was evaluated in compliance with the conditions specified in the Regulation for the Enforcement of Federal Insecticide, Fungicide and Rodenticide Act (40 CFR 162). The compound was administered undiluted at a dosage of 5.0 g/kg to one group of five male and five female, Sprague-Dawley derived, albino rats. […] Animals were weighed seven days after treatment. At the end of the 14-day observation period, the rats were weighed, killed, and given a gross necropsy.
# [9] = Acute oral toxicity (FIFRA, 40 CFR 162); format: in vivo, Sprague-Dawley derived, albino rats; details: rat, in vivo, undiluted, male and female Sprague-Dawley rats
# Description: as §1
# [10] = Acute dermal toxicity (FIFRA, 40 CFR 162); format: in vivo, New Zealand White Rabbits; details: rabbit, in vivo, topical or ocular, undiluted, male and female New Zealand White rabbits
# Description: (§2) The acute dermal toxicity of the compound was evaluated in compliance with the conditions specified in the Regulation for the Enforcement of Federal Insecticide, Fungicide and Rodenticide Act (40 CFR 162). The compound was applied undiluted to the skin of one group of five male and five female New Zealand White Rabbits at a dosage of 2.0 g/kg for 24 hours. […] Animals were weighted 7 days after treatment. At the end of the 14day observation period, the rabbits were weighed, killed, and given a gross necropsy.
# [11] = test system: skin of male and female New Zealand White Rabbits; assay: Acute dermal toxicity (FIFRA, 40 CFR 162); format: in vivo; details: undiluted, 2.0 g/kg for 24 hours, rabbits
# Description: as §2
# [12] = 2 hrs, millbase heated to 60° C., two moles of scavenger per mole of water
smiles,measurement,setting,value
"CC1(C)CC(N=C=O)CC(C)(CN=C=O)C1 (stereo not drawn) [IPDI, isophorone diisocyanate, reference compound]",% H2O Remaining After 2 hrs.,[1]; [12],< .02%
"CCC1COC(C(C)C)N1 (stereo not drawn) [BBA, 4-ethyl-2-isopropyl oxazolidine]",% H2O Remaining After 30 min.,[1],.20%
same,% H2O Remaining After 60 min.,[1],.19%
same,% H2O Remaining After 2 hrs.,[1],.13%
same,mutagenicity (Ames),[2],non-mutagenic
same,primary dermal irritation classification,[3],moderate irritant
same,acute dermal toxicity classification,[4]; TSCA guidelines,non-toxic
same,acute dermal toxicity: mortality,[4]; male and female rabbits,absence of mortality
same,LD50,[5],1600 mg/kg
CCC12COC(C(C)C)N1C(C(C)C)OC2 (stereo not drawn) [EBA],% H2O Remaining After 30 min.,[1],.08%
same,% H2O Remaining After 60 min.,[1],.08%
same,% H2O Remaining After 2 hrs.,[1],.06%
same,mutagenicity (Ames),[2],non-mutagenic
same,persistence of irritation,"[6]; 0.5 ml, 4 hours contact, 72 hours after application",Mild irritation persisted 72 hours after application
same,Primary Irritation Index,"[6]; rabbit, in vivo",2.7
same,tissue damage (corrosion),"[6]; rabbit, in vivo",No evidence of tissue damage (corrosion)
same,eye irritation persistence,"[7]; 0.1 ml undiluted, without rinsing, six rabbits",irritation persisting for seven days
same,corneal opacity,"[7]; rabbit, in vivo",corneal opacity persisting for less than seven days
same,clinical changes,[8]; 14-day observation,"urine and/or fecal stains, mucoid feces, and alopecia"
same,deaths,[8]; 14-day observation,No deaths occurred
same,gross necropsy findings,[8]; end of 14-day observation,"one rat with darkened and mottled lungs, otherwise no gross changes"
same,LD50 at 336 h,[9],> 5000 mg/kg
same,LD50 at 336 h,[10],> 2000 mg/kg
same,clinical changes,[11]; 14-day observation,No clinical changes were observed
same,deaths,[11]; 14-day observation,No deaths occurred
same,gross necropsy findings,[11]; end of 14-day observation,no significant gross changes
same,most frequently observed irritative effects,[11],erythema and desquamation
"Cc1ccc(S(=O)(=O)N=C=O)cc1 [PTSI, p-toluenesulfonyl isocyanate, reference compound]",% H2O Remaining After 30 min.,"[1]; 30 min, millbase heated to 60° C., two moles of scavenger per mole of water",< .05%
same,% H2O Remaining After 60 min.,"[1]; 60 min, millbase heated to 60° C., two moles of scavenger per mole of water",< .05%
same,% H2O Remaining After 2 hrs.,[1]; [12],< .05%

# Reference: patent US5264148A, “Moisture scavenging oxazolidines” (Angus Cheical Company, priority 1990, dated 1993)
